Tests used:
[1] = tested on: murine lymphoma L1210; conditions: ER-876437 10 mg/kg/Veh
Description: Or, a stock of L1210 ascites in BSA solution was diluted to 1×10^4 cells/0.1 ml for use in the study mice.
The mice were prepared with intravenous (IV) injection of L1210 ascites (prepared as described above) one day prior to commencing the dosing. […] The total IV injection for all mice took about 50 minutes.
All solutions were stored on ice while dosing. Mice were dosed (intraperitoneally (IP) or per os (orally, PO)) twice a day (8 hours apart) for 4 consecutive days.
Dead mice were autopsied and observed for the presence of tumors in organs.

[2] = Stability in simulated gastric fluid at 37° C. (HPLC); type: physicochemical
From the text: […]. See Kararli, T. T. Comparison of the GI anatomy, physiology, and biochemistry of humans and commonly used laboratory animals. BioPharm & DrugDispos. 16:351-380, 1995, which is hereby wholly incorporated by reference. The gastric pH in fasted monkeys has been reported to have a similar range of 1-3. See Kondo, H. et al. Characteristics of the gastric pH profiles of unfed and fed cynomolgus monkeys as pharmaceutical product development subjects. BioPharm & DrugDispos. 24:45-51, 2003, which is hereby wholly incorporated by reference.
Materials: Simulated gastric fluid (SGF) was prepared by mixing the following into 100 mL of HPLC grade (or purified) water: 200 mg of sodium chloride and 1.87 mL of a 37.52% HCl stock solution.
The HPLC analyses were conducted using a Waters UPLC solvent delivery system with Corona CAD detection. The HPLC Column (Waters Atlantis HHS T3 2.1×100 mm, 1.8 um) was maintained at 40° C. and preequilibrated with a solution containing 98% water and 2% acetonitrile. The temperature controlled auto-sampler was maintained at 37° C. The flow rate for the Water/MeCN mobile phase was 0.65 mL/min, with a gradient following sample injection (5 μL) as follows: […]
The Water/MeCN mobile phase was applied to the column with the above described flow rate and gradient and the HPLC chromatograms were collected. After 3.5 minutes, the column was reequilibrated with 98% water/2% MeCN for 1.5 minutes.

## O=C1NCC=CCN1[C@@H]1O[C@H](CO)[C@@H](O)C1(F)F [ER-876437, 1-((2R,4R,5R)-3,3-difluoro-4-hydroxy-5-(hydroxymethyl)tetrahydrofuran-2-yl)-3,4-dihydro-1H-1,3-diazepin-2(7H)-one]
[1]; on autopsy
  Mean Liver wts (g) ± SD: 2.02 ± 0.07 g
  Mean Spleen wts (g) ± SD: 0.37 ± 0.04 g
[1]; twice a day (8 hours apart), 4 days
  Mean Survival (days) ± SD: 7.6 ± 0.89 days
[1]; vs vehicle group
  % ILS (Increased Life Span): 2.70%
[2]; SGF at 37° C., analysis time 0:00:30
  % ER-876437 (peak retention time: 2.90 min): 85.88%
[2]; SGF at 37° C., analysis time 0:06:08
  % ER-876437 (peak retention time: 2.90 min): 85.72%
[2]; SGF at 37° C., analysis time 0:11:45
  % ER-876437 (peak retention time: 2.90 min): 86.46%
[2]; SGF at 37° C., analysis time 0:17:24
  % ER-876437 (peak retention time: 2.90 min): 86.38%
[2]; SGF at 37° C., analysis time 0:23:02
  % ER-876437 (peak retention time: 2.90 min): 83.22%
[2]; SGF at 37° C., analysis time 0:28:39
  % ER-876437 (peak retention time: 2.90 min): 83.48%
[2]; SGF at 37° C., analysis time 0:34:17
  % ER-876437 (peak retention time: 2.90 min): 83.80%
[2]; SGF at 37° C., analysis time 0:39:54
  % ER-876437 (peak retention time: 2.90 min): 84.16%
[2]; SGF at 37° C., analysis time 0:45:32
  % ER-876437 (peak retention time: 2.90 min): 82.62%
[2]; SGF at 37° C., analysis time 0:51:10
  % ER-876437 (peak retention time: 2.90 min): 82.41%
[2]; SGF at 37° C., analysis time 0:56:47
  % ER-876437 (peak retention time: 2.90 min): 82.45%
[2]; SGF at 37° C., analysis time 1:02:26
  % ER-876437 (peak retention time: 2.90 min): 82.45%
[2]; SGF at 37° C., analysis time 1:08:04
  % ER-876437 (peak retention time: 2.90 min): 82.55%
[2]; SGF at 37° C., analysis time 1:13:41
  % ER-876437 (peak retention time: 2.90 min): 83.11%
[2]; SGF at 37° C., analysis time 1:19:19
  % ER-876437 (peak retention time: 2.90 min): 81.82%
[2]; SGF at 37° C., analysis time 1:24:56
  % ER-876437 (peak retention time: 2.90 min): 81.24%
[2]; SGF at 37° C., analysis time 1:30:33
  % ER-876437 (peak retention time: 2.90 min): 79.20%
[2]; SGF at 37° C., analysis time 1:36:10
  % ER-876437 (peak retention time: 2.90 min): 79.14%
[2]; SGF at 37° C., analysis time 1:41:47
  % ER-876437 (peak retention time: 2.90 min): 78.47%
[2]; SGF at 37° C., analysis time 1:47:24
  % ER-876437 (peak retention time: 2.90 min): 77.88%
[2]; SGF at 37° C., analysis time 1:53:02
  % ER-876437 (peak retention time: 2.90 min): 78.29%
[2]; SGF at 37° C., analysis time 1:58:39
  % ER-876437 (peak retention time: 2.90 min): 78.56%
[2]; SGF at 37° C., analysis time 2:04:16
  % ER-876437 (peak retention time: 2.90 min): 77.21%
[2]; SGF at 37° C., analysis time 2:21:12
  % ER-876437 (peak retention time: 2.90 min): 76.06%
[2]; SGF at 37° C., analysis time 2:26:50
  % ER-876437 (peak retention time: 2.90 min): 77.34%
[2]; SGF at 37° C., analysis time 2:49:21
  % ER-876437 (peak retention time: 2.90 min): 75.34%
[2]; SGF at 37° C., analysis time 3:17:30
  % ER-876437 (peak retention time: 2.90 min): 72.37%
[2]; SGF at 37° C., analysis time 3:51:16
  % ER-876437 (peak retention time: 2.90 min): 50.13%
[2]; SGF at 37° C., analysis time 4:19:26
  % ER-876437 (peak retention time: 2.90 min): 51.88%
[2]; SGF at 37° C., analysis time 4:47:38
  % ER-876437 (peak retention time: 2.90 min): 48.95%
[2]; SGF at 37° C., analysis time 5:21:25
  % ER-876437 (peak retention time: 2.90 min): 45.19%
[2]; SGF at 37° C., analysis time 5:49:35
  % ER-876437 (peak retention time: 2.90 min): 47.44%
[2]; SGF at 37° C., analysis time 6:17:45
  % ER-876437 (peak retention time: 2.90 min): 44.94%
[2]; SGF at 37° C., analysis time 6:51:31
  % ER-876437 (peak retention time: 2.90 min): 43.29%
[2]; SGF at 37° C., analysis time 7:19:40
  % ER-876437 (peak retention time: 2.90 min): 41.85%
[2]; SGF at 37° C., analysis time 7:47:22
  % ER-876437 (peak retention time: 2.90 min): 41.72%
[2]; SGF at 37° C., analysis time 8:21:11
  % ER-876437 (peak retention time: 2.90 min): 36.89%
[2]; SGF at 37° C., analysis time 8:49:19
  % ER-876437 (peak retention time: 2.90 min): 37.52%
[2]; SGF at 37° C., analysis time 9:17:30
  % ER-876437 (peak retention time: 2.90 min): 36.34%
[2]; SGF at 37° C., analysis time 9:51:17
  % ER-876437 (peak retention time: 2.90 min): 34.61%
[2]; SGF at 37° C., analysis time 10:19:29
  % ER-876437 (peak retention time: 2.90 min): 31.94%
[2]; SGF at 37° C., analysis time 10:47:39
  % ER-876437 (peak retention time: 2.90 min): 32.33%
[2]; SGF at 37° C., analysis time 11:15:53
  % ER-876437 (peak retention time: 2.90 min): 29.85%
[2]; SGF at 37° C., analysis time 11:49:44
  % ER-876437 (peak retention time: 2.90 min): 29.94%
[2]; SGF at 37° C., analysis time 12:17:54
  % ER-876437 (peak retention time: 2.90 min): 27.99%
[2]; SGF at 37° C., analysis time 12:46:10
  % ER-876437 (peak retention time: 2.90 min): 27.39%
[2]; SGF at 37° C., analysis time 13:20:01
  % ER-876437 (peak retention time: 2.90 min): 26.14%
[2]; analysis time 0:00:00, initial sample in water
  % ER-876437 (peak retention time: 2.90 min): 92.18%
[2]; simulated gastric fluid (pH 1.45) at 37° C.
  half-life: 4 to 6 h
